Results: patent publication US8088806B2 (Achillion Pharmaceuticals, Inc., priority 2005, dated 2012)

These compounds were tested on HCV replicon (assay: Replicon based assay of HCV replication inhibition (NPT ELISA)). Conditions: Hepatitis C virus, replicon based assay of HCV replication inhibition; Table IV; read-out: Activity.
Assay type: cell-based, Hepatitis C virus
How it was run: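 NPT (neomycin phosphotransferase) content, proportional to replicon replication, quantified by capture ELISA on day four. Before that, replicon-bearing Huh-7 cells in G418-free screening medium were exposed three days at 37° C to compound, typically six doses from 10 to 0.03 micromolar, with equal DMSO across wells.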

SMILES	EC50
c1ccc(-c2nc3cc(Nc4nc(-c5cccnc5)cs4)ccc3o2)cc1 [compound 736, 2-phenyl-N-(4-(pyridin-3-yl)thiazol-2-yl)benzo[d]oxazol-5-amine]	< 1 µM
c1cncc(-c2csc(Nc3ccc4c(c3)OCCO4)n2)c1 [compound 737, N-(2,3-dihydrobenzo[b][1,4]dioxin-6-yl)-4-(pyridin-3-yl)thiazol-2-amine]	> 10 µM
Clc1ccc(-c2cc(Nc3nc(-c4cccnc4)cs3)[nH]n2)cc1 [compound 738, 3-(4-chlorophenyl)-N-(4-(pyridin-3-yl)thiazol-2-yl)-1H-pyrazol-5-amine]	> 10 µM
Brc1ccc(Nc2nc(-c3cccnc3)cs2)nc1 [compound 739, 5-bromo-N-(4-(pyridin-3-yl)thiazol-2-yl)pyridin-2-amine]	> 10 µM
c1cncc(-c2csc(Nc3ccc4c(c3)OCO4)n2)c1 [compound 740, N-(benzo[d][1,3]dioxol-6-yl)-4-(pyridin-3-yl)thiazol-2-amine]	> 10 µM
COc1ccc(Nc2nc(-c3cccnc3)cs2)cc1OC1CCCC1 [compound 741, N-(3-(cyclopentyloxy)-4-methoxyphenyl)-4-(pyridin-3-yl)thiazol-2-amine]	1 to 10 µM
Clc1cc(Nc2nc(-c3cccnc3)cs2)ccc1N1CCOCC1 [compound 742, N-(3-chloro-4-morpholinophenyl)-4-(pyridin-3-yl)thiazol-2-amine]	1 to 10 µM
CN1Cc2c(Nc3nc(-c4cccnc4)cs3)cccc2C(c2ccccc2)C1 (stereo not drawn) [compound 743, 1,2,3,4-tetrahydro-2-methyl-4-phenyl-N-(4-(pyridin-3-yl)thiazol-2-yl)isoquinolin-8-amine]	> 10 µM
COC(=O)c1sc(-c2ccccc2)cc1Nc1nc(-c2cccnc2)cs1 [compound 744, methyl 3-(4-(pyridin-3-yl)thiazol-2-ylamino)-5-phenylthiophene-2-carboxylate]	> 10 µM
Cc1nc2cc(Nc3nc(-c4cccnc4)cs3)ccc2s1 [compound 745, 2-methy1-N-(4-(pyridin-3-yl)thiazol-2-yl)benzo[d]thiazol-5-amine]	> 10 µM
c1cncc(-c2csc(Nc3cc(-c4cccs4)n[nH]3)n2)c1 [compound 746, N-(4-(pyridin-3-yl)thiazol-2-yl)-3-(thiophen-2-yl)-1H-pyrazol-5-amine]	> 10 µM
Cc1cccc2sc(Nc3nc(-c4cccnc4)cs3)nc12 [compound 747, 4-methyl-N-(4-(pyridin-3-yl)thiazol-2-yI)benzo[d]thiazol-2-amine]	> 10 µM
Cn1nc(-c2ccccc2)cc1Nc1nc(-c2cccnc2)cs1 [compound 748, 1-methyl-3-phenyl-N-(4-(pyridin-3-yl)thiazol-2-yl)-1H-pyrazol-5-amine]	> 10 µM
c1cc(Nc2nc(-c3cccnc3)cs2)cc(-c2cocn2)c1 [compound 749, N-(3-(oxazol-4-yl)phenyl)-4-(pyridin-3-yl)thiazol-2-amine]	> 10 µM
CCn1c(C)nc2cc(Nc3nc(-c4cccnc4)cs3)ccc21 [compound 750, 1-ethyl-2-methyl-N-(4-(pyridin-3-yl)thiazol-2-yl)-1H-benzo[d]imidazol-5-amine]	> 10 µM
c1ccc(Oc2ccc(Nc3nc(-c4cccnc4)cs3)cn2)cc1 [compound 752, 6-phenoxy-N-(4-(pyridin-3-yl)thiazol-2-yl)pyridin-3-amine]	1 to 10 µM
c1cncc(-c2csc(Nc3ccc4ncsc4c3)n2)c1 [compound 753, N-(4-(pyridin-3-yl)thiazol-2-yl)benzo[d]thiazol-6-amine]	> 10 µM
c1ccc(-c2cc(Nc3nc(-c4cccnc4)cs3)[nH]n2)cc1 [compound 754, 3-phenyl-N-(4-(pyridin-3-yl)thiazol-2-yl)-1H-pyrazol-5-amine]	> 10 µM
c1cncc(-c2csc(Nc3ccc4[nH]ncc4c3)n2)c1 [compound 755, N-(4-(pyridin-3-yl)thiazol-2-yl)-1H-indazol-5-amine]	> 10 µM
c1ccc(-c2ccc(Nc3nc(-c4cccnc4)cs3)cn2)cc1 [compound 756, 6-phenyl-N-(4-(pyridin-3-yl)thiazol-2-yl)pyridin-3-amine]	1 to 10 µM
c1ccc(CCc2ccc(Nc3nc(-c4cccnc4)cs3)cc2)cc1 [compound 757, N-(4-phenethylphenyl)-4-(pyridin-3-yl)thiazol-2-amine]	< 1 µM

SMILES	EC50
CCN(CC)CCOC(=O)c1ccc(Nc2nc(-c3cccnc3)cs2)cc1 [compound 758, 2-(diethylamino)ethyl 4-(4-(pyridin-3-yl)thiazol-2-ylamino)benzoate]	> 10 µM
CCN(CC)C(=O)c1cccc(Nc2nc(-c3cccnc3)cs2)c1 [compound 759, 3-(4-(pyridin-3-yl)thiazol-2-ylamino)-N,N-diethylbenzamide]	> 10 µM
O=C(c1ccccc1)c1cccc(Nc2nc(-c3cccnc3)cs2)c1 [compound 760, (3-(4-(pyridin-3-yl)thiazol-2-ylamino)phenyl)(phenyl) methanone]	> 10 µM
c1cncc(-c2csc(Nc3ccc4nccnc4c3)n2)c1 [compound 761, N-(4-(pyridin-3-yl)thiazol-2-yl)quinoxalin-6-amine]	> 10 µM
[2H]c1ccc2nc(-c3csc(Nc4ccc(OCC5CCCCC5)c(C(F)(F)F)c4)n3)ccc2n1 [compound 762, N-(4-(cyclohexylmethoxy)-3-(trifluoromethyl)phenyl)-4-(2-deuterated-1,5-naphthyridin-6-yl)thiazol-2-amine]	1 to 10 µM
FC(F)(F)c1cc(Nc2nc(-c3cncnc3-c3ccccc3)cs2)ccc1OCC1CCCCC1 [compound 763, N-(4-(cyclohexylmethoxy)-3-(trifluoromethyl)phenyl)-4-(4-phenylpyrimidin-5-yl)thiazol-2-amine]	1 to 10 µM
N#Cc1ccc(-c2csc(Nc3ccc(OCC4CCCCC4)c(C(F)(F)F)c3)n2)o1 [compound 764, 5-(2-(4-(cyclohexylmethoxy)-3-(trifluoromethyl)phenylamino)thiazol-4-yl)furan-2-carbonitrile]	< 1 µM
OCc1cc2cc(-c3csc(Nc4ccc(OCC5CCCCC5)c(C(F)(F)F)c4)n3)ccc2o1 [compound 765, (5-(2-(4-(cyclohexylmethoxy)-3-(trifluoromethyl)phenylamino)thiazol-4-yl)benzofuran-2-yl)methanol]	< 1 µM
FC(F)(F)c1ccc(-c2csc(Nc3ccc(OCC4CCCCC4)c(C(F)(F)F)c3)n2)nc1 [compound 766, N-(4-(cyclohexylmethoxy)-3-(trifluoromethyl)phenyl)-4-(5-(trifluoromethyl)pyridin-2-yl)thiazol-2-amine]	< 1 µM
COc1ncc(-c2csc(Nc3ccc(OCC4CCCCC4)c(C(F)(F)F)c3)n2)c(OC)n1 [compound 767, N-(4-(cyclohexylmethoxy)-3-(trifluoromethyl)phenyl)-4-(2,4-dimethoxypyrimidin-5-yl)thiazol-2-amine]	< 1 µM
Cc1ccnc(-c2csc(Nc3ccc(OCC4CCCCC4)c(C(F)(F)F)c3)n2)c1 [compound 768, N-(4-(cyclohexylmethoxy)-3-(trifluoromethyl)phenyl)-4-(4-methylpyridin-2-yl)thiazol-2-amine]	< 1 µM
CCOC(=O)c1csc(-c2csc(Nc3ccc(OCC4CCCCC4)c(C(F)(F)F)c3)n2)n1 [compound 769, ethyl 2-(2-(4-(cyclohexylmethoxy)-3-(trifluoromethyl)phenylamino)thiazole-4-yl)thiazole-4-carboxylate]	< 1 µM
CCCCCCCCOc1ccc(Nc2nc(-c3nc4ccccc4n3C)cs2)cc1C(F)(F)F [compound 770, N-(3-(trifluoromethyl)-4-(octyloxy)phenyl)-4-(1-methyl-1H-benzo[d]imidazol-2-yl)thiazol-2-amine]	< 1 µM
FC(F)(F)c1cccc(-c2csc(Nc3ccc(OCC4CCCCC4)c(C(F)(F)F)c3)n2)c1 [compound 771, N-(4-(cyclohexylmethoxy)-3-(trifluoromethyl)phenyl)-4-(3-(trifluoromethyl)phenyl)thiazol-2-amine]	< 1 µM
COc1cccc(-c2csc(Nc3ccc(OCC4CCCCC4)c(C(F)(F)F)c3)n2)n1 [compound 772, N-(4-(cyclohexylmethoxy)-3-(trifluoromethyl)phenyl)-4-(6-methoxypyridin-2-yl)thiazol-2-amine]	< 1 µM
COc1ccc2cc(-c3csc(Nc4ccc(OCC5CCCCC5)c(C(F)(F)F)c4)n3)ccc2c1 [compound 773, N-(4-(cyclohexylmethoxy)-3-(trifluoromethyl)phenyl)-4-(2-methoxynaphthalen-6-yl)thiazol-2-amine]	< 1 µM
FC(F)(F)c1cc(Nc2nc(-c3cccc4cccnc34)cs2)ccc1OCC1CCCCC1 [compound 774, N-(4-(cyclohexylmethoxy)-3-(trifluoromethyl)phenyl)-4-(quinolin-8-yl)thiazol-2-amine]	< 1 µM
COc1ncc(-c2csc(Nc3ccc(OC/C=C(\C)CCC=C(C)C)c(C(F)(F)F)c3)n2)cn1 [compound 775, N-(4-((E)-3,7-dimethylocta-2,6-dienyloxy)-3-(trifluoromethyl)phenyl)-4-(2-methoxypyrimidin-5-yl)thiazol-2-amine]	< 1 µM
COc1ncc(-c2csc(Nc3ccc(OCCC(C)CCCC(C)C)c(C(F)(F)F)c3)n2)cn1 (stereo not drawn) [compound 776, N-(4-(3,7-dimethyloctyloxy)-3-(trifluoromethyl)phenyl)-4-(2-methoxypyrimidin-5-yl)thiazol-2-amine]	< 1 µM
CCCCCCCCSc1ccc(Nc2nc(-c3cnc(OC)nc3)cs2)cc1C(F)(F)F [compound 777, N-(3-(trifluoromethyl)-4-(octylthio)phenyl)-4-(2-methoxypyrimidin-5-yl)thiazol-2-amine]	< 1 µM
COc1ncc(-c2csc(Nc3ccc(C(=O)N4CCC5CCCCC5C4)c(C(F)(F)F)c3)n2)cn1 (stereo not drawn) [compound 778, (4-(4-(2-methoxypyrimidin-5-yl)thiazol-2-ylamino)-2-(trifluoromethyl)phenyl) (octahydroisoquinolin-2(1H)-yl)methanone]	1 to 10 µM
